# According to article PMC10590383, “Repurposing conformational changes in ANL superfamily enzymes to rapidly generate biosensors for organic and amino acids” (Nature Communications, 2023):
# Assay: Dose–response curve of purified […]s with phenylalanine
# Assay type: biochemical
# Description: Fig. 3 Dose–response curves and fluorescence spectrums of […]s. a, c, e, g, i, k Dose–response curve of purified […]s with increasing concentrations of ligand in 100 mM Tris-HCl buffer (pH=7.5). The normalized ΔF/F0 value increased after ligand binding. All data shown are mean ± S.D. (n = 3 biologically independent samples). b, d, f, h, j, l The fluorescence spectra of […]s changed as the ligand concentration increased. All data shown are mean ± S.D. (n = 3 biologically independent samples). Source data are provided as a Source data file.
# Fig. 4 Engineering ligand specificity of GrsA-PheA for generating […]s. a The selectivity-conferring code of Phe and Leu A domains. b–f Dose–response curve of purified […]s with increasing concentrations of ligands in 100 mM Tris-HCl buffer (pH=7.5). All data shown are means ± S.D. (n = 3 biologically independent samples). g A series of […] reactions was tested to show the […]’s specificity with 20 proteinogenic amino acids. The values on the heatmap represent the ΔF/F0 value normalized to each […]’s maximal ΔF/F0 value ((ΔF/F0)/maximal ΔF/F0). The concentrations of 20 amino acids were 100 μM. The color indicates the average value of three independent biological replicates after 15 min. All data shown are means ± S.D. (n = 3 biologically independent samples). Source data are provided as a Source data file.
# The study conducted dose–response curve, substrate specificity, and fluorescent spectrum analyses in 100-mM Tris buffer (pH = 7.5), while pH stability experiments were performed in 100-mM Tris buffer at three different pH values (6.5, 7.5, and 8.5) at room temperature. […] protein at a concentration of 0.75 μM, various small molecule concentrations, 1 mM ATP, and 2.5 mM MgCl2 were used in the experiments. Fluorescent signals were detected using a Microplate Reader (Synergy H4, Bio Tek) at an excitation/emission wavelength of 460 nm/510 nm or 480 nm/510 nm. The dose-response curve was determined immediately after the addition of the analyte. The total duration of the measurement was 15 min, with readings taken at one-minute intervals. The dose-response curve was plotted using the fluorescence values obtained after achieving stability in the fluorescence signal. The dose-response curves were fitted using the logistic model LOGISTIC5 available in Origin 2021, which could provide a more adequate fit to asymmetric dose-response data[62],[63]. Excitation spectra were scanned from 300 to 540 nm with a step size of 5 nm, and the emission wavelength was set to 560 nm. Emission spectra were scanned from 470 to 700 nm with a step size of 5 nm, and the excitation wavelength was set to 450 nm. The thermal stability of […] was analyzed using the UNcle multifunctional protein stability analysis system. Measurements were performed in 20 mM MOPS buffer with 2 mM DTT at a sample concentration of 1 mg/mL. Absolute fluorescence quantum yields were measured using an absolute photoluminescence quantum yield spectrometer (FS5, Edinburgh).
smiles,measurement,setting,value
N[C@@H](Cc1ccccc1)C(=O)O [Phe],"AVE, dose-response Fig. 4 b",substrate Phe 0.001 μM,0
same,"AVE, dose-response Fig. 4 b",substrate Phe 0.005 μM,0.04668
same,"AVE, dose-response Fig. 4 b",substrate Phe 0.01 μM,0.05356
same,"AVE, dose-response Fig. 4 b",substrate Phe 0.05 μM,0.1413
same,"AVE, dose-response Fig. 4 b",substrate Phe 0.1 μM,0.2634
same,"AVE, dose-response Fig. 4 b",substrate Phe 0.5 μM,0.9215
same,"AVE, dose-response Fig. 4 b",substrate Phe 1 μM,1.384
same,"AVE, dose-response Fig. 4 b",substrate Phe 5 μM,2.412
same,"AVE, dose-response Fig. 4 b",substrate Phe 10 μM,2.788
same,"AVE, dose-response Fig. 4 b",substrate Phe 25 μM,3.108
same,"AVE, dose-response Fig. 4 b",substrate Phe 50 μM,3.25
same,"AVE, dose-response Fig. 4 b",substrate Phe 100 μM,3.385
same,"AVE, dose-response Fig. 4 c",substrate Phe 0.5 μM,0
same,"AVE, dose-response Fig. 4 c",substrate Phe 1 μM,0.02176
same,"AVE, dose-response Fig. 4 c",substrate Phe 2 μM,0.04684
same,"AVE, dose-response Fig. 4 c",substrate Phe 5 μM,0.0476
same,"AVE, dose-response Fig. 4 c",substrate Phe 10 μM,0.102
same,"AVE, dose-response Fig. 4 c",substrate Phe 20 μM,0.1609
same,"AVE, dose-response Fig. 4 c",substrate Phe 50 μM,0.1914
same,"AVE, dose-response Fig. 4 c",substrate Phe 100 μM,0.2096
same,"AVE, dose-response Fig. 4 c",substrate Phe 200 μM,0.2332
same,"AVE, dose-response Fig. 4 c",substrate Phe 500 μM,0.2962
same,"AVE, dose-response Fig. 4 c",substrate Phe 750 μM,0.3509
same,"AVE, dose-response Fig. 4 c",substrate Phe 1000 μM,0.2649
same,"AVE, dose-response Fig. 4 e",substrate Phe 0.1 μM,-6.4763e-17
same,"AVE, dose-response Fig. 4 e",substrate Phe 0.2 μM,0.02607
same,"AVE, dose-response Fig. 4 e",substrate Phe 1 μM,0.02065
same,"AVE, dose-response Fig. 4 e",substrate Phe 2 μM,0.01654
same,"AVE, dose-response Fig. 4 e",substrate Phe 10 μM,0.06065
same,"AVE, dose-response Fig. 4 e",substrate Phe 20 μM,0.08275
same,"AVE, dose-response Fig. 4 e",substrate Phe 100 μM,0.1347
same,"AVE, dose-response Fig. 4 e",substrate Phe 200 μM,0.2309
same,"AVE, dose-response Fig. 4 e",substrate Phe 500 μM,0.3796
same,"AVE, dose-response Fig. 4 e",substrate Phe 1000 μM,0.4613
same,"AVE, dose-response Fig. 4 e",substrate Phe 1500 μM,0.4963
same,"AVE, dose-response Fig. 4 e",substrate Phe 2000 μM,0.5161
same,"AVE, dose-response Fig. 4 f",substrate Phe 0.0001 μM,-0.000122
same,"AVE, dose-response Fig. 4 f",substrate Phe 0.001 μM,0.002395
same,"AVE, dose-response Fig. 4 f",substrate Phe 0.01 μM,0.009697
same,"AVE, dose-response Fig. 4 f",substrate Phe 0.1 μM,0.01529
same,"AVE, dose-response Fig. 4 f",substrate Phe 1 μM,-0.009047
same,"AVE, dose-response Fig. 4 f",substrate Phe 10 μM,0.009571
same,"AVE, dose-response Fig. 4 f",substrate Phe 50 μM,0.1062
same,"AVE, dose-response Fig. 4 f",substrate Phe 100 μM,0.2173
same,"AVE, dose-response Fig. 4 f",substrate Phe 500 μM,0.5047
same,"AVE, dose-response Fig. 4 f",substrate Phe 1000 μM,0.643
same,"AVE, dose-response Fig. 4 f",substrate Phe 5000 μM,0.6763
same,"AVE, dose-response Fig. 4 f",substrate Phe 10000 μM,0.7368
same,"AVE, dose-response Fig. 4 d",substrate Phe 0.01 μM,0.02814
same,"AVE, dose-response Fig. 4 d",substrate Phe 0.1 μM,0.03519
same,"AVE, dose-response Fig. 4 d",substrate Phe 1 μM,0.04924
same,"AVE, dose-response Fig. 4 d",substrate Phe 5 μM,0.06403
same,"AVE, dose-response Fig. 4 d",substrate Phe 10 μM,0.08037
same,"AVE, dose-response Fig. 4 d",substrate Phe 50 μM,0.1108
same,"AVE, dose-response Fig. 4 d",substrate Phe 100 μM,0.1713
same,"AVE, dose-response Fig. 4 d",substrate Phe 200 μM,0.2373
same,"AVE, dose-response Fig. 4 d",substrate Phe 500 μM,0.3495
same,"AVE, dose-response Fig. 4 d",substrate Phe 750 μM,0.3806
same,"AVE, dose-response Fig. 4 d",substrate Phe 1000 μM,0.3842
same,"fluorescence response of GECFINDER, AVE of 3 repeats","Supplementary Fig. 3 a, Phe 0.001 μM",0
same,"fluorescence response of GECFINDER, AVE of 3 repeats","Supplementary Fig. 3 a, Phe 0.005 μM",0.03394
same,"fluorescence response of GECFINDER, AVE of 3 repeats","Supplementary Fig. 3 a, Phe 0.01 μM",0.09128
same,"fluorescence response of GECFINDER, AVE of 3 repeats","Supplementary Fig. 3 a, Phe 0.1 μM",0.1211
same,"fluorescence response of GECFINDER, AVE of 3 repeats","Supplementary Fig. 3 a, Phe 1 μM",0.1406
same,"fluorescence response of GECFINDER, AVE of 3 repeats","Supplementary Fig. 3 a, Phe 10 μM",0.1472
same,"fluorescence response of GECFINDER, AVE of 3 repeats","Supplementary Fig. 3 a, Phe 50 μM",0.1578
same,"fluorescence response of GECFINDER, AVE of 3 repeats","Supplementary Fig. 3 a, Phe 100 μM",0.198
same,"fluorescence response of GECFINDER, AVE of 3 repeats","Supplementary Fig. 3 a, Phe 500 μM",0.3919
same,"fluorescence response of GECFINDER, AVE of 3 repeats","Supplementary Fig. 3 a, Phe 1000 μM",0.5221
same,"fluorescence response of GECFINDER, AVE of 3 repeats","Supplementary Fig. 3 a, Phe 5000 μM",0.7757
same,"fluorescence response of GECFINDER, AVE of 3 repeats","Supplementary Fig. 3 a, Phe 10000 μM",0.7576
same,"fluorescence response of GECFINDER, AVE of 3 repeats","Supplementary Fig. 3 b, Phe 0.001 μM",-4.337e-17
same,"fluorescence response of GECFINDER, AVE of 3 repeats","Supplementary Fig. 3 b, Phe 0.005 μM",0.01069
same,"fluorescence response of GECFINDER, AVE of 3 repeats","Supplementary Fig. 3 b, Phe 0.01 μM",-0.003867
same,"fluorescence response of GECFINDER, AVE of 3 repeats","Supplementary Fig. 3 b, Phe 0.1 μM",0.001408
same,"fluorescence response of GECFINDER, AVE of 3 repeats","Supplementary Fig. 3 b, Phe 1 μM",0.04065
same,"fluorescence response of GECFINDER, AVE of 3 repeats","Supplementary Fig. 3 b, Phe 10 μM",0.112
same,"fluorescence response of GECFINDER, AVE of 3 repeats","Supplementary Fig. 3 b, Phe 50 μM",0.2916
same,"fluorescence response of GECFINDER, AVE of 3 repeats","Supplementary Fig. 3 b, Phe 100 μM",0.4046
same,"fluorescence response of GECFINDER, AVE of 3 repeats","Supplementary Fig. 3 b, Phe 500 μM",0.8587
same,"fluorescence response of GECFINDER, AVE of 3 repeats","Supplementary Fig. 3 b, Phe 1000 μM",1.065
same,"fluorescence response of GECFINDER, AVE of 3 repeats","Supplementary Fig. 3 b, Phe 5000 μM",1.452
same,"fluorescence response of GECFINDER, AVE of 3 repeats","Supplementary Fig. 3 b, Phe 10000 μM",1.455
